Results on three compounds are retold here after US7183075B2, “Purified and isolated potassium-chloride cotransporter nucleic acids and polypeptides and therapeutic and screening methods using same” (Vanderbilt University, priority 2000, dated 2007).

Read-outs that look alike come from different tables or passages of the source.

In the test the target is T1, xKCC (Xenopus laevis, UniProt A0A1L8HZL0).
T1 sequence (A0A1L8HZL0 1-1133): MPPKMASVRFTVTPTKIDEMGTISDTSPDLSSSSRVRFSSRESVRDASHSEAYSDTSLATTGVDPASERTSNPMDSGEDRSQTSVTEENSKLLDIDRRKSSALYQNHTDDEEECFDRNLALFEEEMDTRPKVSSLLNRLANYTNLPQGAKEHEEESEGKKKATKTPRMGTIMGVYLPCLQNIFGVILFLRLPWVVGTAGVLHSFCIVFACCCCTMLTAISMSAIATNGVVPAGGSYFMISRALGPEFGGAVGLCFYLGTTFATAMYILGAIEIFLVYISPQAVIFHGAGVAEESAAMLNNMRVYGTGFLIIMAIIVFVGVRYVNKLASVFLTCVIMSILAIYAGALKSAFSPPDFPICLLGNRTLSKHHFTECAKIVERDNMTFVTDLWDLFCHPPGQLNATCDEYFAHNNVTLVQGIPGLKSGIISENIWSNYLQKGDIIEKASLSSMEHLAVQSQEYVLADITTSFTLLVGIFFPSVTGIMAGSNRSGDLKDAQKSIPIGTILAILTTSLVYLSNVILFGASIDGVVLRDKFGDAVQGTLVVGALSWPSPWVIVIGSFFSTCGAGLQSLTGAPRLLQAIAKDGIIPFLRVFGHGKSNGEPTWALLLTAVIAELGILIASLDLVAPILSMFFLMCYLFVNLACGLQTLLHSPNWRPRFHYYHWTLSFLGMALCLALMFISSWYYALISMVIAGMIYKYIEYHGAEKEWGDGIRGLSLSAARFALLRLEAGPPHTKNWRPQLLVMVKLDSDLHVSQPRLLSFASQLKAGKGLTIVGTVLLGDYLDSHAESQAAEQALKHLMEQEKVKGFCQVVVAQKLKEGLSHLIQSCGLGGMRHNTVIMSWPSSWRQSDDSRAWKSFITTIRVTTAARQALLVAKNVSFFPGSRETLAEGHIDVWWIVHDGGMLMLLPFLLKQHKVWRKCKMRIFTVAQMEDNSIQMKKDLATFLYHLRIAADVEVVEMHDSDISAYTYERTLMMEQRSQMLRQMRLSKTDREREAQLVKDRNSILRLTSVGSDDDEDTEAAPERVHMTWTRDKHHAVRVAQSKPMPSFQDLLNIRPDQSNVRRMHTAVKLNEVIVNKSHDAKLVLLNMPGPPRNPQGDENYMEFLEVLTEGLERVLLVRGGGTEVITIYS
Put plainly: 86Rb+ uptake by the endogenous K+-Cl- cotransporter of water-injected Xenopus oocytes. It is filed as cell-based. The note with it: for Km: xKCC. The method, then:
Oocytes were surgically collected from anesthetized female Xenopus adults under 0.17% tricaine and incubated for 1 hour with vigorous shaking in frog Ringer ND96 (96 mM sodium chloride, 2 mM potassium chloride, 1.8 mM calcium chloride, 1.0 mM magnesium chloride, and 5 mM Hepes/Tris, pH 7.4) in the presence of 2 mg/ml collagenase B. Oocytes were then washed four times in ND96, manually defolliculated, and incubated overnight in ND96 at 18° C. On the next day, defolliculated stage V–VI oocytes were injected with 50 nl of water or a solution containing cRNA at a concentration of 0.25–0.5 μg/μl (25 ng/oocyte). Oocytes were incubated at 17–18° C. in ND96 (96 mM sodium chloride, 2 mM potassium chloride, 1.8 mM calcium chloride, 1.0 mM magnesium chloride, and 5 mM Hepes/Tris, pH 7.4), supplemented with 2.5 mM sodium pyruvate and 5 mg/100 ml gentamicin, for 3–4 days. The incubation medium was changed every 24 hours. On the day of the experiment, oocytes were switched to Cl^−-free ND96 (96 mM Na^+ Na^+ isethionate, 2 mM K^+ gluconate, 6 mM Ca^2+ gluconate, 1 mM Mg^2+ gluconate, 5 mM Hepes, 2.5 mM sodium pyruvate, 5 mg/100 ml gentamicin, pH 7.4) for 2 hours prior to the uptake assay.
K^+—Cl^− cotransport was assessed by measuring tracer ^86Rb^+ uptake (NEN® Life Science Products of Boston, Mass.) in experimental groups of at least 15 oocytes. Since both KCC4 and KCC1 display minimal activity under isotonic conditions ^86Rb^+ uptake was generally assessed in oocytes swollen by a 30-minute incubation period in a hypotonic K^+ and Cl^−-free medium (50 mM N-methyl-D-glucamine (NMDG) gluconate, 4.6 mM Ca^2+ gluconate, 1.0 mM Mg^2+ gluconate, 5 mM Hepes, pH 7.4) with 1 mM ouabain, followed by a 60-minute uptake period in a hypotonic Na^+-free medium with variable K^+—Cl^− content. […] All uptake solutions also contained 1.8 mM CaCl2, 1 mM MgCl2, 5 mM Hepes, pH 7.4, and were supplemented with 1 mM ouabain and […] ^86Rb^+. […]
All uptake assays were performed at 32° C. […] Oocytes were dissolved in 10% SDS, and tracer activity was determined for each oocyte by β-scintillation counting.

As a reminder, the Km is the substrate concentration at which the rate is half of its maximum. For the compound `[K+]` [Potassium], where the note is “read-out: Potassium Km”, the Km was found to be 27.7 mM.
As to `CCN1C(=O)C=CC1=O` [NEM, N-ethylmaleimide], the “86Rb+ uptake due to endogenous oocyte K+-Cl- cotransporter” value (NEM, H2O-injected oocytes, both isotonic and hypotonic) is on record as “significantly increased”.
In the case of `Cl` [Chloride], the Km (read-out: Chloride Km) is 15.4 mM.
